According to patent US7087626B2, “Pyrrole derivatives as pharmaceutical agents” (Eli Lilly and Company, priority 2001, dated 2006):
Where a name gives a salt, the structure may show the parent alone.

Target: T1, p38α/SAPK2α (Homo sapiens, UniProt Q16539)
T1 construct: purchased Upstate Biotechnology 14-251
Experiment: p38α in vitro kinase assay
Type: biochemical
Settings: 5 nM p38α, 62.5 uM EGFR substrate, 100 uM ATP, 30° C., 40 min
Protocol: p38α in vitro Kinase Assay
Active p38α/SAPK2α was purchased from Upstate Biotechnology (cat#14-251). A known p38α substrate from EGFR was used in the assay (Young, et al. (1997) JBC 272: 12116-12121).
Reactions were performed in 1× kinase buffer (25 mM Tris-HCl pH 7.5, 5 mM β-glycerophosphate, 2 mM DTT, 0.1 mM Na3VO4, 10 mM MgCl2, 1 uM Microcystin) with 5 nM p38α, 62.5 uM substrate, 40 uM to 0.2 nM compound dilution series in 1×KB/16% DMSO (final 4% DMSO concentration). Reactions were started by addition of 100 uM ATP (final concentration) with 1 uCi ^33P-γ-ATP in 1×KB and incubated at 30° C. for 40 min. Reactions were stopped with H3PO4 and quantitated on Millipore PH phosphocellulose filter plates by liquid scintillation counting on a MicroBeta JET.

T1 sequence (Q16539 whole entry): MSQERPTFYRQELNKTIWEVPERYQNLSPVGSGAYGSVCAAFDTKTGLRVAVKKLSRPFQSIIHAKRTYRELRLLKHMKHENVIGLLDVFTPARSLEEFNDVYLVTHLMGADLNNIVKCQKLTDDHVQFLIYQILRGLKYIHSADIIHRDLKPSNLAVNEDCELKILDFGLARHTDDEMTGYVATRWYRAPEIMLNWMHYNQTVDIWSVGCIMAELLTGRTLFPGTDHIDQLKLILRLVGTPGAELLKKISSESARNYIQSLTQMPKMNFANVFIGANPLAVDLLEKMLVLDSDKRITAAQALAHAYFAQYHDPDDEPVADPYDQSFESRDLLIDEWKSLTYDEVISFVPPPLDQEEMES

| IC50 | Compound |
| --- | --- |
| < 20 µM | COC(=O)c1ccc2c(-c3c(-c4ccccn4)nn4c3CCC4)ccnc2c1 [4-[2-Pyridin-2-yl-5,6-dihydro-4H-pyrrolo[1,2-b]pyrazol-3-yl]-quinoline-7-carboxylic acid methyl ester] |

Target: T2, TGF-β Type I (RIT204D) receptor (Homo sapiens, UniProt P36897, T204D)
T2 construct: The 6×-HIS tagged cytoplasmic kinase domain of each receptor was expressed and purified from Sf9 insect cell lysates; 6xHis; made in house; host or cells: Sf9 insect cells
T2 sequence (P36897 148-503 T204D limits assumed): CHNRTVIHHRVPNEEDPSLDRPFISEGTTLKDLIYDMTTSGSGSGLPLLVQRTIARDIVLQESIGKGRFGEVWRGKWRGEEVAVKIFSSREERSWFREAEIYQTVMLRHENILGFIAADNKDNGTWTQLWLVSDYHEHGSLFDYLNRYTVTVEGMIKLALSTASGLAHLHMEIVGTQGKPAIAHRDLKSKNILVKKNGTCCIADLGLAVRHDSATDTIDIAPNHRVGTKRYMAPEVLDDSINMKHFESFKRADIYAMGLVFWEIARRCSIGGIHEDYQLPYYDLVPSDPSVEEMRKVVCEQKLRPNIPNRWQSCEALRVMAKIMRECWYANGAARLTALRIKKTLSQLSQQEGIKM
Experiment: TGF-β Receptor I (RIT204D) in vitro kinase reaction
Type: biochemical
Settings: 6×-HIS cytoplasmic kinase domain, 4 uM ATP, 30° C., 1 hr
Protocol: TGF-β Receptor I and II Purification and in vitro Kinase Reactions
For TGF-β Type I (RIT204D) and Type II (RII WT) Receptors: The 6×-HIS tagged cytoplasmic kinase domain of each receptor was expressed and purified from Sf9 insect cell lysates as briefly described below:
Cell pellets after 48-72 hrs of infection were lysed in lysis buffer (LB: 50 mM Tris pH 7.5, 150 mM NaCl, 50 mM NaF, 0.5% NP40 with freshly added 20 mM, β-mercaptoethanol, 10 mM imidazole, 1 mM PMSF, 1×EDTA-free Complete Protease Inhibitor (Boehringer Mannheim).
Reactions: 170-200 nM enzyme in 1×KB, compound dilution series in 1×KB/16% DMSO (20 uM to 1 nM final concentration with 4% DMSO final concentration), reactions started by adding ATP mix (4 uM ATP/1 uCi ^33P-[…]-ATP final concentrations) in 1×KB.
Reactions were incubated at 30° C. for 1 hr RIT204D or 40 min for RII WT. Reactions were stopped and quantitated using standard TCA/BSA precipitation onto Millipore FB glass fiber filter plates and by liquid scintillation counting on a MicroBeta JET.

| IC50 | Compound |
| --- | --- |
| < 20 µM | CN(C)C(=O)c1cccc(Oc2ccc3c(-c4c(-c5ccccn5)nn5c4CCC5)ccnc3c2)c1 [N,N-Dimethyl-3-[4-(2-pyridin-2-yl-5,6-dihydro-4H-pyrrolo[1,2-b]pyrazol-3-yl)-quinolin-7-yloxy]-benzamide] |

Target: T3, KDR (VEGFR2) (Homo sapiens, UniProt P35968)
T3 construct: The 6×-HIS tagged cytoplasmic kinase domain of KDR was expressed and purified from Sf9 insect cell lysates; 6xHis; made in house; host or cells: Sf9 insect cells
Experiment: KDR (VEGFR2) in vitro kinase assay
Type: biochemical
Settings: 1 ug enzyme, 1 uM ATP, 30° C., 20 min
Protocol: KDR (VEGFR2) Purification and in vitro Kinase Assay
The 6×-HIS tagged cytoplasmic kinase domain of KDR was expressed and purified from Sf9 insect cell lysates as described above with the following modification:
1× kinase buffer for chromatography washes and elution was changed to 100 mM HEPES pH 7.5, 10 mM MnCl2 and 5 mM β-mercaptoethanol. The resulting material was approximately 40% pure and had tyrosine autophosphorylation activity.
Reactions: 1 ug enzyme in 1×KB, compound dilution series in 1×KB/16% DMSO (20 uM to 1 nM final concentration with 4% DMSO final concentration), reactions were started by adding ATP mix (1 uM ATP/1 uCi ^33P-[…]-ATP final concentrations) in 1×KB.
Reactions were incubated at 30° C. for 20 min. The reactions were stopped and quantitated using standard TCA/BSA precipitation onto Millipore FC glass fiber filter plates and by liquid scintillation counting on a MicroBeta JET.

T3 sequence (P35968 834-1162 limits assumed, species assumed): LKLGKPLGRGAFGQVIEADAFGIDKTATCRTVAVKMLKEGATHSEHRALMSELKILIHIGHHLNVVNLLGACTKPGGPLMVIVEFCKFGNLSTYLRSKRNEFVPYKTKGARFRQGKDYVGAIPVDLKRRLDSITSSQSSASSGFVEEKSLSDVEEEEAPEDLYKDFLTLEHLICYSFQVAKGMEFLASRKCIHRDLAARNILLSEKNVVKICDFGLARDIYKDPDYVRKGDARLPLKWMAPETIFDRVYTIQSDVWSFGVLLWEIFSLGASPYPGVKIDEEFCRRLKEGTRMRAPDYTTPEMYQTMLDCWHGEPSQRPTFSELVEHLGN

| IC50 | Compound |
| --- | --- |
| < 20 µM | COC(=O)c1ccc2c(-c3c(-c4cccc(C)n4)nn4c3CCC4)ccnc2c1 [4-[2-(6-Methyl-pyridin-2-yl)-5,6-dihydro-4H-pyrrolo[1,2-b]pyrazol-3-yl]-quinoline-7-carboxylic acid methyl ester] |
| < 20 µM | c1ccc(-c2nn3c(c2-c2ccnc4ccccc24)OCC3)nc1 [4-(6-Pyridin-2-yl-2,3-dihydro-pyrazolo[5,1-b]oxazol-7-yl)-quinoline dioxylate salt] |
| < 20 µM | Cc1cccc(-c2nn3c(c2-c2ccnc4cc(C(=O)NCCCN(C)C)ccc24)CCC3)n1 [4-[2-(6-Methyl-pyridin-2-yl)-5,6-dihydro-4H-pyrrolo[1,2-b]pyrazol-3-yl]-quinoline-7-carboxylic acid (3-dimethylamino-propyl)-amide] |
| < 20 µM | CCN(CC)CCCOc1ccc2c(-c3c(-c4cccc(C)n4)nn4c3CCC4)ccnc2c1 [Diethyl-(3-{4-[2-(6-methyl-pyridin-2-yl)-5,6-dihydro-4H-pyrrolo[1,2-b]pyrazol-3-yl]-quinolin-7-yloxy}-propyl)-amine] |
| < 20 µM | Cc1cccc(-c2nn3c(c2-c2ccnc4cc(OCCCN5CCOCC5)ccc24)CCC3)n1 [4-[2-(6-Methyl-pyridin-2-yl)-5,6-dihydro-4H-pyrrolo[1,2-b]pyrazol-3-yl]-7-(3-morpholin-4-yl-propoxy)-quinoline] |
| < 20 µM | c1ccc(-c2nn3c(c2-c2ccnc4cc(OCCCn5ccnn5)ccc24)CCC3)nc1 [4-(2-Pyridin-2-yl-5,6-dihydro-4H-pyrrolo[1,2-b]pyrazol-3-yl)-7-(3-[1,2,3]triazol-1-yl-propoxy)-quinoline] |
| < 20 µM | NCCCOc1ccc2c(-c3c(-c4ccccn4)nn4c3CCC4)ccnc2c1 [3-[4-(2-pyridin-2-yl-5,6-dihydro-4H-pyrrolo[1,2-b]pyrazol-3-yl)-quinolin-7-yloxy]-propylamine] |
| < 20 µM | CC(=O)NCCNC(=O)c1ccc2c(-c3c(-c4ccccn4)nn4c3CCC4)ccnc2c1 [4-(2-Pyridin-2-yl-5,6-dihydro-4H-pyrrolo[1,2-b]pyrazol-3-yl)-quinoline-7-carboxylic acid (2-acetylamino-ethyl)-amide] |
| < 20 µM | c1ccc(-c2nn3c(c2-c2ccnc4cc(OCCCN5CCCC5)ccc24)CCC3)nc1 [4-(2-Pyridin-2-yl-5,6-dihydro-4H-pyrrolo[1,2-b]pyrazol-3-yl)-7-(3-pyrrolidin-1-yl-propoxy)-quinoline] |
| < 20 µM | COC(=O)c1ccc2c(-c3c(-c4ccccn4)nn4c3CCC4)ccnc2c1 [4-[2-Pyridin-2-yl-5,6-dihydro-4H-pyrrolo[1,2-b]pyrazol-3-yl]-quinoline-7-carboxylic acid methyl ester] |
| < 20 µM | Oc1ccc2c(-c3c(-c4ccccn4)nn4c3CCC4)ccnc2c1 [4-(2-Pyridin-2-yl-5,6-dihydro-4H-pyrrolo[1,2-b]pyrazol-3-yl)-quinolin-7-ol] |
| < 20 µM | CN(CCCOc1ccc2c(-c3c(-c4ccccn4)nn4c3CCC4)ccnc2c1)Cc1ccccc1 [Benzyl-methyl-{3-[4-(2-pyridin-2-yl-5,6-dihydro-4H-pyrrolo[1,2-b]pyrazol-3-yl)-quinolin-7-yloxy]-propyl}-amine] |
| < 20 µM | CN(C)C(=O)c1cccc(Oc2ccc3c(-c4c(-c5ccccn5)nn5c4CCC5)ccnc3c2)c1 [N,N-Dimethyl-3-[4-(2-pyridin-2-yl-5,6-dihydro-4H-pyrrolo[1,2-b]pyrazol-3-yl)-quinolin-7-yloxy]-benzamide] |

System: TGF-β dependent luciferase production in Mv1Lu C1 cells (p3TP-Lux reporter)
Experiment: MV1LU p3TP-Lux assay
Type: cell-based
Settings: TGF-β1 10 pM, 16-20 hrs
Excerpt: A stable Mv1Lu clone (C1) containing the p3TP-Lux reporter was created by standard transfection and puromycin selection protocols. This stable clone was used to screen the example compounds for their ability to inhibit TGF-β dependent luciferase production as briefly described below: • 1. Plated Mv1Lu C1 cells in Wallac™ Black Isoplates • 2. Allowed cells to adhere overnight. • 3. Removed media and replaced with 0.5% FBS DMEM media • 4. Added the compound dilution series in 0.5% FBS/DMEM containing 1% DMSO such that the final compound concentration ranged from 20 uM to 0.1 nM and the final DMSO concentration was 0.2%. • 5. Incubated at 37° C./5% CO2 for 2 hrs. • 6. Added 0.5% FBS/DMEM as control or TGF-β1 diluted in 0.5% FBS/DMEM (final concentration of 10 pM) to the −/+ TGF-β wells respectively • 7. Incubated for 16-20 hrs. at 37° C./5% CO2 • 8. Removed media and rinsed 1× with PBS. • 9. Removed PBS and lysed the cells with 1× Passive Lysis Buffer (Promega) at room temperature. • 10. Counted relative luciferase activity on the MicroBeta JET by injecting Luciferase Assay Reagent II (PROMEGA).
The use of the above assay in measuring TGF-β responsive activity is described in Wrana, et al. Cell 71: 1003-1014 (1992).

| IC50 | Compound |
| --- | --- |
| < 20 µM | OCC1CCc2c(-c3ccnc4ccccc34)c(-c3ccccn3)nn21 (stereo not drawn) [4-(6-Hydroxymethyl-2-pyridin-2-yl-5,6-dihydro-4H-pyrrolo[1,2-b]pyrazol-3yl)-quinoline] |
| < 20 µM | c1ccc(-c2nn3c(c2-c2ccnc4cc(OCCCN5CCCCCC5)ccc24)CCC3)nc1 [7-(3-azepan-1-yl-propoxy)-4-(2-pyridin-2-yl-5,6-dihydro-4H-pyrrolo[1,2-b]pyrazol-3-yl)-quinoline] |
| < 20 µM | Cc1cccc(-c2nn3c(c2-c2ccnc4ccc(-c5ccc6c(c5)OCO6)cc24)CCC3)n1 [6-Benzo[1,3]dioxol-5-yl-4-[2-(6-methyl-pyridin-2-yl)-5,6-dihydro-4H-pyrrolo[1,2-b]pyrazol-3-yl]-quinoline] |
| < 20 µM | Cc1cccc(-c2nn3c(c2-c2ccnc4c(F)cccc24)CCC3)n1 [8-Fluoro-4-[2-(6-methyl-pyridin-2-yl)-5,6-dihydro-4H-pyrrolo[1,2-b]pyrazol-3-yl]-quinoline] |
| < 20 µM | Cc1cccc(-c2nn3c(c2-c2ccnc4ccccc24)CC(c2ccc(F)cc2)C3)n1 (single isomer, unassigned) [4-[5-(4-Fluoro-phenyl)-2-(6-methyl-pyridin-2-yl)-5,6-dihydro-4H-pyrrolo[1,2-b]pyrazol-3-yl]-quinoline] |
| < 20 µM | Cc1cccc(-c2nn3c(c2-c2ccnc4cc(CCC(=O)N(C)C)ccc24)CCC3)n1 [N,N-Dimethyl-3-{4-[2-(6-methyl-pyridin-2-yl)-5,6-dihydro-4H-pyrrolo[1,2-b]pyrazol-3-yl]-quinolin-7-yl}-propionamide] |
